Laboratory results from publication PMC11198769, “Enhancement of transcription efficiency by TAR-Tat system increases the functional expression of human olfactory receptors” (PLOS ONE, 2024).
Like-named read-outs stand apart in the source and are kept apart here.

What was measured:
Test in all cases: hOR assay (GloSensor cAMP luciferase), dose-response
Format in all cases: cell-based
[1] = target: T1, OR5M3 (Homo sapiens, UniProt Q8NGP4); conditions: OR5M3, with or without the TAR-Tat system
T1 construct: Lucy tag (N); FLAG (N); Rho tag (N); expressed in transfected cells; host or cells: Flp-In T-REx-293 cells stably expressing RTP1S, Gαolf and Ric8-b
T1 sequence (Q8NGP4 1-307): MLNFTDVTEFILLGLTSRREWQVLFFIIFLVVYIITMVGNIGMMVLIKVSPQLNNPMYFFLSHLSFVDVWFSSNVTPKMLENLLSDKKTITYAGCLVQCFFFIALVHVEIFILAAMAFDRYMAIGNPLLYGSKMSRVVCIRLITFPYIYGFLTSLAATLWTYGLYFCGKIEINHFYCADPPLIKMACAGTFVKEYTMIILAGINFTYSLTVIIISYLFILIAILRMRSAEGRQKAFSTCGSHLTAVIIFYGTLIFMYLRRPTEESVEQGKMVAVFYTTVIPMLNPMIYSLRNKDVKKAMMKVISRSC
Protocol: (§1) Flp-In T-REx-293 cells stably expressing accessory proteins (RTP1S, Gαolf, and Ric8-b) were established using the Flp-In T-REx system. Accessory proteins-expressing cells were maintained in high-glucose Dulbecco’s modified Eagle medium (Sigma-Aldrich) containing 10% fetal bovine serum (Biowest) and 1% antibiotic–antimycotic (Nacalai tesque) at 37°C with 5% CO2.
(§2) The GloSensor™ Technology (Promega) was used for the luciferase assay of the hOR response. As the negative control, cells that were transfected by the pBApo-CMV neo vector and pHEK293 Ultra Expression Vector I were used as mock cells. hOR/pHEK and hOR/pBApo (50 ng/well) were transfected into the accessory proteins-expressing cell line (40000 cells/well) using Lipofectamine 2000 (Thermo Fisher Scientific) (400 nL/well) along with pGlosensor™-22F cAMP biosensor plasmid (Promega) (50 ng/well) in a 96-well plate. At 28 h posttransfection, the cells were washed with an assay buffer (140 mM NaCl, 10 mM HEPES, 5 mM KCl, 1 mM CaCl2・2H2O, 10 mM D-glucose, pH 7.5) and replaced with the assay buffer (50 μL/well) containing 2% GloSensor cAMP substrate and preincubated for 1 h at 25°C. Then, the assay buffer was added (130 μL/well). After 10 min of equilibration, the luminescence was measured (L0). Odorants diluted in 10% DMSO/assay buffer were treated (20 μL/well). After 9 min, the luminescence was measured (L9min). First, all the L9min values were subtracted by the L0 value (ΔL) and divided by the L0 value (ΔL/L0). The concentration range of the odorants was different for each odorant, but the minimum was 0.01 μM and the maximum was 3 mM. For all hORs, luciferase assays with hOR/pBApo and hOR/pHEK were conducted in the same 96-well plate each time, and luminescence was normalized to a maximum value of 100. Dose–response curve images were graphed using the Graph Pad Prism 9 software (Graph Pad Software).

[2] = target: T2, OR2W1 (Homo sapiens, UniProt Q9Y3N9); conditions: for EC50: read-out: EC50 of n-hexanal concentration-response relationship
T2 construct: Lucy tag (N); FLAG (N); Rho tag (N); expressed in transfected cells; host or cells: Flp-In T-REx-293 cells stably expressing RTP1S, Gαolf and Ric8-b
T2 sequence (Q9Y3N9 1-320): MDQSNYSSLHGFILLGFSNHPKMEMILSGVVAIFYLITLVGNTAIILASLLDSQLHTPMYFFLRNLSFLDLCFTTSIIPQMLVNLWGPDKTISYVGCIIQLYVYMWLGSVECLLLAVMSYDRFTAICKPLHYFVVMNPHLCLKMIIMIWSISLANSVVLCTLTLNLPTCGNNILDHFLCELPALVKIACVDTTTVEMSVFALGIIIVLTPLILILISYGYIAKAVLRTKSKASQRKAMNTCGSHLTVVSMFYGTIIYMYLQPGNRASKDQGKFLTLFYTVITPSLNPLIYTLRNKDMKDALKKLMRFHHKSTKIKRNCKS
Protocol: as §1, §2

[3] = target: T3, OR10C1 (Homo sapiens, UniProt Q96KK4); conditions: OR10C1, with or without the TAR-Tat system
T3 construct: Lucy tag (N); expressed in transfected cells; host or cells: Flp-In T-REx-293 cells stably expressing RTP1S, Gαolf and Ric8-b
T3 sequence (Q96KK4 1-312): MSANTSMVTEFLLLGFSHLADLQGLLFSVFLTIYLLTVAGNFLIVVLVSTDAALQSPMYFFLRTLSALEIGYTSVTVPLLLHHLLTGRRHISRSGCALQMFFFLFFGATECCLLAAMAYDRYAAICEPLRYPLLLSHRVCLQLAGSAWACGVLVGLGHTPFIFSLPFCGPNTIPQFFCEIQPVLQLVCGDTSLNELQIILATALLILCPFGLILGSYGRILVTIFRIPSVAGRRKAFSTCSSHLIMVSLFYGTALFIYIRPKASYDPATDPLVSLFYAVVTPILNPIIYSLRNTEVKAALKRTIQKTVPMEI
Protocol: as §1, §2

[4] = target: T4, OR5K1 (Homo sapiens, UniProt Q8NHB7)
T4 construct: Lucy tag (N); FLAG (N); Rho tag (N); expressed in transfected cells; host or cells: Flp-In T-REx-293 cells stably expressing RTP1S, Gαolf and Ric8-b
T4 sequence (Q8NHB7 1-308): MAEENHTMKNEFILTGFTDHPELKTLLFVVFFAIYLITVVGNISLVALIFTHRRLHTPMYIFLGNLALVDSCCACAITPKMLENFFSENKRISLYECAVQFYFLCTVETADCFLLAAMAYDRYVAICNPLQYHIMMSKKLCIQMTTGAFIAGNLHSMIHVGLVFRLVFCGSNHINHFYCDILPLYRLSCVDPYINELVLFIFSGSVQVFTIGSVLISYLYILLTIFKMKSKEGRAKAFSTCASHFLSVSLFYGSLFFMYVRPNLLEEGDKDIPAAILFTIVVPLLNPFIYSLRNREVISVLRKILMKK
Protocol: as §1, §2

[5] = target: T5, OR2B3 (Homo sapiens, UniProt O76000); conditions: OR2B3, with or without the TAR-Tat system
T5 construct: Lucy tag (N); FLAG (N); Rho tag (N); expressed in transfected cells; host or cells: Flp-In T-REx-293 cells stably expressing RTP1S, Gαolf and Ric8-b
T5 sequence (O76000 1-313): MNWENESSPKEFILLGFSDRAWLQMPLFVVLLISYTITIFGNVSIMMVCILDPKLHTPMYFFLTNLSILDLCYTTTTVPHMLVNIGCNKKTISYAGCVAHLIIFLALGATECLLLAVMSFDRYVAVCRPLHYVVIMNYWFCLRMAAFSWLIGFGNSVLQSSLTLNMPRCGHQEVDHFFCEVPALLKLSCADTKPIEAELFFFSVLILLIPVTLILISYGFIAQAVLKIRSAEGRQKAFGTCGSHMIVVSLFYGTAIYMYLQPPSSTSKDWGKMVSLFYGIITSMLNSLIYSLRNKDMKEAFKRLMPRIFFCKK
Protocol: as §1, §2

SMILES: CCCCCC=O [n-hexanal]
- concentration-dependent response to n-hexanal [1]: no concentration-dependent response
- concentration-dependent response to n-hexanal ([2]; OR2W1, with and without the TAR-Tat system): Concentration-dependent responses were observed
- EC50 ([2]; OR2W1/pBApo (without TAR-Tat system)): 21 µM
- EC50 ([2]; OR2W1/pHEK (with TAR-Tat system)): 60 µM
- increase of maximum value of dose-response curve with the TAR-Tat system ([2]; OR2W1/pHEK versus OR2W1/pBApo): 2.0 fold
- concentration-dependent response to n-hexanal [3]: no concentration-dependent response
- concentration-dependent response to n-hexanal ([4]; OR5K1, with and without the TAR-Tat system): concentration-dependent responses only with the TAR-Tat system
- EC50 ([4]; OR5K1/pHEK (with TAR-Tat system), read-out: EC50 of n-hexanal concentration-response relationship): 11 µM
- concentration-dependent response to n-hexanal [5]: no concentration-dependent response
